The source of these data is patent publication US8436012B2, “Imidazopyridin-2-one derivatives” (Daiichi Sankyo Company, Limited, priority 2008, dated 2013).

Some results are limits rather than exact numbers.

One experiment relates to WM-266-4 cells. In words: Cell Proliferation Inhibitory Test. In kind it is cell-based. To be noted: Homo sapiens, 72 h, cultured three days with test compound, MTT, read-out: 50% cell proliferation inhibitory activity (GI50 value). How it is done: WM-266-4 cells (ATCC, USA) were seeded in a 96-well plate and cultured overnight. Then, serial dilutions of the sample containing the test compound were prepared, added to each well and cultured another three days. Thereafter, the cell amount in each well was measured by MTT (MOSMANN, T., Rapid colorimetric assay for cellular growth and survival: application to proliferation and cytotoxicity assays. J. Immunol. Methods, 65, 55-63 (1983)). The 50% cell proliferation inhibitory activity (GI50 value) was calculated from the following formula (3). 100×[(T−T0)/(C−T0)]=50 (3)
Here, T represents values from the test compound added wells, C represents the value from the well to which the test compound was not added for three days, and To represents an initial measured value at the time of addition of the test compound.

The target of the next experiment is T1, human mTOR (Homo sapiens, UniProt P42345).
T1 construct: the portion corresponding to 1362-2549aa at the C terminus of human mTOR; made in house
T1 sequence (P42345 1362-2549): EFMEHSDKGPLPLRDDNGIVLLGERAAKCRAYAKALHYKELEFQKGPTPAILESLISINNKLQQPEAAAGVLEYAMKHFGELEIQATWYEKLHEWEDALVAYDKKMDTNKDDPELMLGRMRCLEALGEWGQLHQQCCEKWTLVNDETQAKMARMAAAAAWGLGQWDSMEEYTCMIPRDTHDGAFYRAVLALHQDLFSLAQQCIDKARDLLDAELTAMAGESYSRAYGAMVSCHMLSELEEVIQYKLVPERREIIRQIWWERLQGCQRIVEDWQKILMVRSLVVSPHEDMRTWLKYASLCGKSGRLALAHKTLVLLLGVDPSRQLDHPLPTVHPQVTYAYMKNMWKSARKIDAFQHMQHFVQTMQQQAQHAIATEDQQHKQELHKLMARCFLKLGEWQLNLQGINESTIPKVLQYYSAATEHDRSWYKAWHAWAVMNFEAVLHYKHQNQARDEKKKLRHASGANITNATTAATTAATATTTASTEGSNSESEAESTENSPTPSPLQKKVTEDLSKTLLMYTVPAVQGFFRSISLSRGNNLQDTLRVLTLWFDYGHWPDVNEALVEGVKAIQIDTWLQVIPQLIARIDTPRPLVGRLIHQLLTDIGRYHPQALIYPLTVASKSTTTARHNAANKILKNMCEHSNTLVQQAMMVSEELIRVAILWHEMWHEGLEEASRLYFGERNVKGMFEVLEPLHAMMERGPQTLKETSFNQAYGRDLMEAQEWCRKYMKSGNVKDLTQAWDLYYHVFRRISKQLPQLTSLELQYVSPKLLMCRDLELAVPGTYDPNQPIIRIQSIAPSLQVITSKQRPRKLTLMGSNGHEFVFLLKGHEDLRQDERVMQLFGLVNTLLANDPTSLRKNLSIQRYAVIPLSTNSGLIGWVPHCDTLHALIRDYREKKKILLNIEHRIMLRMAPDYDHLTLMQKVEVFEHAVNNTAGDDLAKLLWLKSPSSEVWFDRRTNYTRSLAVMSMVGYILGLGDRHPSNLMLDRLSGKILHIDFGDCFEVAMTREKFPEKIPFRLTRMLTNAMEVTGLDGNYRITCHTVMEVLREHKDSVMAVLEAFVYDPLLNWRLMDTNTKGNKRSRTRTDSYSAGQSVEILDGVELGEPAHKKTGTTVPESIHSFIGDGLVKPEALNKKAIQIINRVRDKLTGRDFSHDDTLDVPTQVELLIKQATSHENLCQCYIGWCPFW
The experiment is described as follows: mTOR Kinase Activity Inhibition Test. In kind it is biochemical. The note with it: His-tagged mTOR (1362C), biotinylated peptide substrate, ATP, 3 hours at room temperature, fluorescence resonance energy transfer 665 nm/620 nm; read-out: IC50 value of mTOR enzyme inhibitory activity. How it is done:
The kinase activity of mTOR was measured in the presence or absence of a test compound. A substrate peptide is phosphorylated by mTOR kinase activity. A complex of streptavidin-XL665 and anti-phosphorylated S6K (Thr389) antibody/anti-mouse IgG-cryptate binds to this phosphorylated peptide. At this moment, fluorescence resonance energy transfer takes place from antibody/anti-mouse IgG-cryptate exposed to light excitation to XL665, which results in emission of fluorescence at 665 nm. The mTOR kinase activity is detected using this principle.
(1) Sample Preparation and Enzymatic Reaction
An HEK293 cell line that constitutively expresses a His tag fused human mTOR has been established. His tag was introduced into the N terminus of the portion corresponding to 1362-2549aa at the C terminus of human mTOR. Cell lysate was prepared from this HEK293 cell line constitutively expressing His-tagged mTOR (1362C), and His-tagged mTOR (1362C) was purified using the His tag affinity according to a conventional method.
Next, an mTOR enzyme solution was prepared, which contains the aforementioned His-tagged mTOR (1362C) enzyme, 8 μg/mL of biotinylated peptide (Biotin-Ahx-[…]-amide (Sigma)), as well as 50 mM HEPES (pH 7.5), 20 mM MnCl2, 1 mg/ml BSA, an appropriate amount of protease inhibitor cocktail (Complete EDTA free, Roche), 100 ng/ml Calyculin A, 4 μg/ml Cantharidin and 10 mM DTT as other components.
The test compound was dissolved in DMSO, and serial dilutions were prepared with 20 μM ATP solution (50 mM HEPES (pH 7.5), 20 μM ATP) to achieve concentrations necessary for the assay. 5 μL of this compound solution was applied to each well of a 384 well small volume white Greiner plate.
5 μL of mTOR enzyme solution was added to the aforementioned well containing the test compound. After mixing, the mixture was incubated at room temperature for 3 hours to carry out the enzymatic reaction.
The same operation was performed with a solution of DMSO in 20 μM ATP solution as a positive control and with a solution of DMSO in 50 mM HEPES (pH 7.5) as a negative control.
(2) Detection of Enzymatic Reaction
After the enzymatic reaction, 5 μl each of an europium solution (a solution of anti-mouse IgG-cryptate (SCETI Medical Labo K.K.) and anti-phosphorylated S6K (Thr389) antibody (Cell Signaling Technology Inc.) in 50 mM HEPES (pH 7.5), 100 mM EDTA and 1.5 mg/ml BSA) and an XL665 solution (a solution of streptavidin-XL665 (SCETI Medical Labo K.K.) in 50 mM HEPES (pH 7.5), 100 mM EDTA, 0.8 M KF and 1.5 mg/ml BSA) were added in this order and then mixed. The mixture was incubated at 4° C. overnight. On the following day, the mixture was returned to room temperature and irradiated with excitation light at 337 nm. Fluorescence at 620 nm and fluorescence at 665 nm were measured with RUBYstar (BMG).
The mTOR inhibitory activity (%) was calculated using the ratio calculated from the measured values as an index of enzyme activity. Here, the ratio was calculated from the following formula (I). Ratio=10000×665 nm fluorescence value/620 nm fluorescence value (1)
The mTOR enzyme inhibitory activity (%) was calculated from the following formula (2). mTOR enzyme inhibitory activity (%)=100×[(P−S)/(P−N)] (2)
P: Ratio in well of positive control
N: Ratio in well of negative control
S: Ratio in well containing test compound
Further, an optimal curve was calculated based upon each concentration of the test compound prepared in serial dilutions and the mTOR enzyme inhibitory activity (%) at that concentration. The concentration at which 50% inhibition occurred was calculated as the IC50 value of mTOR enzyme inhibitory activity.

The term IC50 denotes the midpoint of a concentration-inhibition curve. Take `C[C@@H]1C[C@H](Cn2c(=O)[nH]c3ncc(-c4cnc5[nH]ccc5c4)cc32)C[C@H](C)O1` [Example 71, 1-{[(2R-4r-6S)-2,6-Dimethyltetrahydro-2H-pyran-4-yl]methyl}-6-(1H-pyrrolo-[2,3-b]pyridin-5-yl)-1,3-dihydro-2H-imidazo[4,5-b]pyridin-2-one]: in the experiment on WM-266-4 cells, the GI50 is under 3 µM. In addition, the IC50 at human mTOR was under 0.05 µM.
On to `Cc1c(-c2cnc3[nH]c(=O)n(C[C@H]4CC[C@@H](O)CO4)c3c2)cnc2[nH]ccc12` (racemic) [Example 141, 2,6-Anhydro-1,3,4-trideoxy-1-[6-(4-methyl-1H-pyrrolo[2,3-b]pyridin-5-yl)-2-oxo-2,3-dihydro-1H-imidazo[4,5-b]pyridin-1-yl]-DL-threo-hexitol], for which the GI50 with WM-266-4 cells is under 3 µM. The IC50 on human mTOR is under 0.05 µM.
On to `O=c1[nH]c2ncc(-c3cnc4[nH]cc(Cl)c4c3)cc2n1C[C@H]1COCCO1` [Example 41, 6-(3-Chloro-1H-pyrrolo[2,3-b]pyridin-5-yl)-1-[(2S)-1,4-dioxan-2-ylmethyl]-1,3-dihydro-imidazo[4,5-b]pyridin-2-one], for which the GI50 in the experiment with WM-266-4 cells was under 3 µM. Also, the IC50 at human mTOR is under 0.05 µM.
Taken in the same sequence, the figures for `Cc1nc2[nH]c(=O)n(C[C@H]3COCCO3)c2cc1-c1cnc2[nH]ccc2c1` [Example 44, 1-[(2S)-1,4-Dioxan-2-ylmethyl]-5-methyl-6-(1H-pyrrolo[2,3-b]pyridin-5-yl)-1,3-dihydro-imidazo[4,5-b]pyridin-2-one] were under 3 µM and under 0.05 µM.
The like results for `C[C@@H]1CN(CCn2c(=O)[nH]c3ncc(-c4ccc5[nH]ccc5c4)cc32)C[C@H](C)O1` [Example 52, 1-{2-[cis-2,6-Dimethylmorpholin-4-yl]ethyl}-6-(1H-indol-5-yl)-1,3-dihydro-2H-imidazo[4,5-b]pyridin-2-one] were, in that order, under 3 µM and under 0.05 µM.
The like results for `CCOCc1cc2cc(-c3cnc4[nH]c(=O)n(CC5CCOCC5)c4c3)cnc2[nH]1` [Example 86, 6-[2-(Ethoxymethyl)-1H-pyrrolo[2,3-b]pyridin-5-yl]-1-(tetrahydro-2H-pyran-4-ylmethyl)-1,3-dihydro-2H-imidazo[4,5-b]pyridin-2-one] were, in that order, 3 to 25 µM and 0.1 to 5 µM.
On to `O=c1[nH]c2ncc(-c3ccc4ncccc4c3)cc2n1CC1CCOCC1` [Example 10, 6-Quinolin-6-yl-1-(tetrahydro-2H-pyran-4-ylmethyl)-1,3-dihydro-2H-imidazo[4,5-b]pyridin-2-one], for which the GI50 in the experiment with WM-266-4 cells lay in the range of 3 to 25 µM. Moreover, the IC50 on human mTOR is under 0.05 µM.
Taken in the same sequence, the figures for `CN(C)Cc1c[nH]c2ncc(-c3cnc4[nH]c(=O)n(CC5CCOCC5)c4c3)cc12` [Example 89, 6-{3-[(Dimethylamino)methyl]-1H-pyrrolo[2,3-b]pyridin-5-yl}-1-(tetrahydro-2H-pyran-4-ylmethyl)-1,3-dihydro-2H-imidazo[4,5-b]pyridin-2-one] were 3 to 25 µM and 0.1 to 5 µM.
With `O=c1[nH]c2ncc(-c3cc4ccccc4[nH]3)cc2n1CC1CCOCC1` [Example 23, 6-(1H-Indol-2-yl)-1-(tetrahydro-2H-pyran-4-ylmethyl)-1,3-dihydro-2H-imidazo[4,5-b]pyridin-2-one], in the experiment with WM-266-4 cells, the GI50 was under 3 µM. The IC50 at human mTOR was under 0.05 µM.
Consider `Cc1c(-c2cnc3[nH]c(=O)n(CC4CCOCC4)c3c2)cnc2[nH]ccc12` [Example 36, 6-(4-Methyl-1H-pyrrolo[2,3-b]pyridin-5-yl)-1-(tetrahydro-2H-pyran-4-ylmethyl)-1,3-dihydro-2H-imidazo[4,5-b]pyridin-2-one], for which the GI50 with WM-266-4 cells was under 3 µM. The IC50 on human mTOR is under 0.05 µM.
On to `CC1(C)CC(Cn2c(=O)[nH]c3ncc(-c4cnc5[nH]ccc5c4)cc32)CCO1` (racemic) [Example 70, 1-[(2,2-Dimethyltetrahydro-2H-pyran-4-yl)methyl]-6-(1H-pyrrolo[2,3-b]pyridin-5-yl)-1,3-dihydro-2H-imidazo[4,5-b]pyridin-2-one], for which the GI50 in the experiment on WM-266-4 cells was under 3 µM. For the same compound, the IC50 at human mTOR is under 0.05 µM.
On to `O=c1[nH]c2ncc(-c3cnc4[nH]ccc4c3)cc2n1CC(F)C1CCOCC1` (centres unmarked) [Example 51, 1-[2-Fluoro-2-(tetrahydro-2H-pyran-4-yl)ethyl]-6-(1H-pyrrolo[2,3-b]pyridin-5-yl)-1,3-dihydro-2H-imidazo[4,5-b]pyridin-2-one], for which, in the experiment with WM-266-4 cells, the GI50 was under 3 µM. For the same compound, at human mTOR, the IC50 is under 0.05 µM.
Taken in the same sequence, the figures for `Cc1c(-c2cnc3[nH]c(=O)n(C[C@H]4COCCO4)c3c2)cnc2[nH]ccc12` [Example 42, 1-[(2S)-1,4-Dioxan-2-ylmethyl]-6-(4-methyl-1H-pyrrolo[2,3-b]pyridin-5-yl)-1,3-dihydro-imidazo[4,5-b]pyridin-2-one] were under 3 µM and under 0.05 µM.
In the case of `O=c1[nH]c2ncc(-c3cnc4[nH]ccc4c3F)cc2n1C[C@H]1COCCO1` [Example 120, 1-[(2S)-1,4-Dioxan-2-ylmethyl]-6-(4-fluoro-1H-pyrrolo[2,3-b]pyridin-5-yl)-1,3-dihydro-2H-imidazo[4,5-b]pyridin-2-one], the GI50 with WM-266-4 cells was under 3 µM. The IC50 on human mTOR was under 0.05 µM.
The like results for `O=c1[nH]c2ncc(-c3ccc4[nH]ccc4c3)cc2n1CCC1=CCOCC1` [Example 49, 1-[2-(3,6-Dihydro-2H-pyran-4-yl)ethyl]-6-(1H-indol-5-yl)-1,3-dihydro-2H-imidazo[4,5-b]pyridin-2-one] were, in that order, under 3 µM and under 0.05 µM.
The like results for `O=c1[nH]c2ncc(-c3cnc4[nH]ccc4c3)cc2n1CCN1CCOCC1` [Example 55, 1-(2-Morpholin-4-ylethyl)-6-(1H-pyrrolo[2,3-b]pyridin-5-yl)-1,3-dihydro-2H-imidazo[4,5-b]pyridin-2-one] were, in that order, under 3 µM and under 0.05 µM.
For `O=c1[nH]c2ncc(-c3cnc4[nH]ccc4c3)cc2n1CCN1CCNCC1` [Example 57, 1-[2-piperazin-1-ylethyl]-6-(1H-pyrrolo[2,3-b]pyridin-5-yl)-1,3-dihydro-2H-imidazo[4,5-b]pyridin-2-one], the GI50 in the experiment on WM-266-4 cells lay within 3 to 25 µM. In addition, the half-inhibitory concentration (IC50) on human mTOR was 0.05 to 0.1 µM.
On to `O=c1[nH]c2ncc(-c3cnc4[nH]ccc4c3)cc2n1C[C@H]1CC[C@H](O)CC1` [Example 101, 1-[(trans-4-Hydroxycyclohexyl)methyl]-6-(1H-pyrrolo[2,3-b]pyridin-5-yl)-1,3-dihydro-2H-imidazo[4,5-b]pyridin-2-one], for which the GI50 with WM-266-4 cells is under 3 µM. At human mTOR, the IC50 is under 0.05 µM.
Regarding `O=c1[nH]c2ncc(-c3cc4cc[nH]c4nc3F)cc2n1CC1CCOCC1` [Example 79, 6-(6-Fluoro-1H-pyrrolo[2,3-b]pyridin-5-yl)-1-(tetrahydro-2H-pyran-4-ylmethyl)-1,3-dihydro-2H-imidazo[4,5-b]pyridin-2-one], the GI50 with WM-266-4 cells was under 3 µM. Besides, the IC50 on human mTOR is under 0.05 µM.
